For nine molecules, AUC and solubility results are on record in patent publication US20250092044A1, “Kinase Inhibitors” (Incyte Corporation, priority 2023, published 2025).

Series [1] in a line: In Vivo Pharmacokinetics (rat). Set-up: species or system Sprague Dawley rats. The settings on record: male, Sprague Dawley, plasma, PO 3.0 mg/kg. As to the method: (§1) Test compounds were administered to male Sprague Dawley rats or male and female Cynomolgus monkeys intravenously or via oral gavage. For intravenous (IV) dosing, test compounds were dosed at 1 mg/kg using a formulation of 10% dimethylacetamide (DMAC), 10% propylene glycol (PG) in acidified saline via IV bolus for rat or 10 min IV infusion for monkey. For oral (PO) dosing, test compounds were dosed at 3.0 mg/kg using 5% DMAC in 0.5% methylcellulose in citrate buffer (PH˜2.5). Blood samples were collected at predose and various time points up to 24 hours postdose. All blood samples were collected using EDTA as the anticoagulant and centrifuged to obtain plasma samples. The plasma concentrations of test compounds were determined by LC-MS/MS methods. The measured plasma concentrations were used to calculate PK parameters by standard noncompartmental methods using Phoenix® WinNonlin software program (version 8.0, Pharsight Corporation) or similar software. In rats and monkeys, cassette dosing of test compounds were conducted to obtain preliminary PK parameters. In vivo pharmacokinetic experiments with male beagle dogs may be performed under the conditions described above.

A short description of another series: FaSSIF Solubility Assay. It is filed as physicochemical. As to conditions: FaSSIF (fasted state simulated intestinal fluid), 25 °C, pH 6.5, fassif, thermodynamic from solid, FaSSIF pH=6.5, 25° C. From the text: The FaSSIF (Fasted State Simulated Intestinal Fluid) solubility assay can predict how an oral drug is likely to be dissolved and potentially absorbed in the upper intestine after drinking a glass of water. FaSSIF solubility assay utilizes biorelevant intestinal media (Biorelevant, Part #FFF01) comprised of physiological surfactants, bile salts, and phospholipids that are present in the gastrointestinal fluids it mimics. FaSSIF (pH=6.5) has the average pH of a fasted intestinal fluid with similar osmolarity. The FaSSIF buffer was prepared by adding 20 mL of phosphate buffer to FaSSIF Powder. The buffer was then added to the dry compound of interest at a concentration of 1 mg/mL and then incubated at 25° C. for 24 hours in a Rototherm Plus (Part #H2024). After incubation, the Eppendorf tubes were centrifuged and run on an Agilent 1260 LC-MS. The LC-MS method is a 5 min gradient method of 2% to 95% acetonitrile with water (0.05% TFA) using a Sunfire C18, 5 um 2.1×50 mm (Part #186002539) column. A dry reference compound of interest was diluted to a known 1 mg/mL concentration in 1:1 of water and acetonitrile. Step-wise serial dilutions were performed and run on an Agilent 1260 LC-MS using the same conditions to make a standard curve. The area under the curve is reported for the compound of interest in FaSSIF buffer and the reference standards. Calculations were performed and the predicted solubility, μg/mL, was reported for compounds of the examples.

Series [2] is described as follows: In Vivo Pharmacokinetics (cynomolgus monkey). As to conditions: both sexes, plasma. More on the design: species or system Cynomolgus monkeys. As to the method: as §1
The nature of series [3]: In Vivo Pharmacokinetics (mouse). As to conditions: plasma, PO.
Where [4] appears, read: PO 3.0 mg/kg, read-out: CYNO PO AUC.

Values after ≈ are worked out from the molar mass of the structure shown. Where two headings read alike, the source gives them in different places.

For the molecule `[2H]C([2H])([2H])n1c(=O)n([C@@H]2CC[C@@H](NC(=O)OC)C2)c2c3c(-c4ccc5c(c4)COC5(C)C)c(-c4ccc(C(=O)N(C)C)cc4)[nH]c3ncc21` [Example 30, methyl ((1R,3R)-3-(8-(1,1-dimethyl-1,3-dihydroisobenzofuran-5-yl)-7-(4-(dimethylcarbamoyl)phenyl)-3-(methyl-d3)-2-oxo-3,6-dihydroimidazo[4,5-d]pyrrolo[2,3-b]pyridin-1(2H)-yl)cyclopentyl)carbamate], the area under the curve (AUC) in series [1] is at most 0.5 µM·h.
Consider `[2H]C([2H])([2H])N(Cc1ccc(-c2[nH]c3ncc4c(c3c2-c2ccc3c(c2)COC3(C)C)n([C@@H]2CC[C@@H](NC(=O)OC)C2)c(=O)n4C([2H])([2H])[2H])cc1)C([2H])([2H])[2H]` [Example 29, Methyl ((1R,3R)-3-(7-(4-((bis(methyl-d3)amino)methyl)phenyl)-8-(1,1-dimethyl-1,3-dihydroisobenzofuran-5-yl)-3-(methyl-d3)-2-oxo-3,6-dihydroimidazo[4,5-d]pyrrolo[2,3-b]pyridin-1(2H)-yl)cyclopentyl)carbamate], for which the solubility at 24 h in “FaSSIF Solubility Assay” (read-out: Solubility Fassif) was above 500 µg/mL. The AUC in series [1] is at most 0.5 µM·h.
As for `[2H]C([2H])([2H])N(Cc1ccc(-c2[nH]c3ncc4c(c3c2-c2ccc(OCCOC)cc2)n([C@@H]2CC[C@@H](NC(=O)OC)C2)c(=O)n4C([2H])([2H])[2H])cc1)C([2H])([2H])[2H]` [Example 27, Methyl ((1R,3R)-3-(7-(4-((bis(methyl-d3)amino)methyl)phenyl)-8-(4-(2-methoxyethoxy)phenyl)-3-(methyl-d3)-2-oxo-3,6-dihydroimidazo[4,5-d]pyrrolo[2,3-b]pyridin-1(2H)-yl)cyclopentyl)carbamate], in “FaSSIF Solubility Assay” (read-out: Solubility Fassif), the solubility at 24 h is above 500 µg/mL. In addition, the AUC in series [1] was 0.5 to 1.5 µM·h; in series [2] (setting [4]), above 1.5 µM·h.
In the case of `COC(=O)N[C@@H]1CC[C@@H](n2c(=O)n(C)c3cnc4[nH]c(-c5ccc(CN(C)C)cc5)c(-c5ccc(F)cc5)c4c32)C1` [Example 28, Methyl ((1R,3R)-3-(7-(4-((dimethylamino)methyl)phenyl)-8-(4-fluorophenyl)-3-methyl-2-oxo-3,6-dihydroimidazo[4,5-d]pyrrolo[2,3-b]pyridin-1(2H)-yl)cyclopentyl)carbamate], the solubility at 24 h in “FaSSIF Solubility Assay” (read-out: Solubility Fassif) is above 500 µg/mL. This molecule gave an AUC in series [1] of 0.5 to 1.5 µM·h.
Turning to `[2H]C([2H])([2H])N(Cc1ccc(-c2[nH]c3ncc4c(c3c2-c2ccc3c(c2)CC(C)(C)O3)n([C@@H]2CC[C@@H](NC(=O)OC)C2)c(=O)n4C([2H])([2H])[2H])cc1)C([2H])([2H])[2H]` [Example 25, Methyl ((1R,3R)-3-(7-(4-((bis(methyl-d3)amino)methyl)phenyl)-8-(2,2-dimethyl-2,3-dihydrobenzofuran-5-yl)-3-(methyl-d3)-2-oxo-3,6-dihydroimidazo[4,5-d]pyrrolo[2,3-b]pyridin-1(2H)-yl)cyclopentyl)carbamate], in “FaSSIF Solubility Assay” (read-out: Solubility Fassif), the solubility at 24 h is 50 to 500 µg/mL (≈ 80.9 to 809 µM). The AUC in series [1] is 0.5 to 1.5 µM·h; in series [2] (PO, 1 mg/kg), at most 0.5 µM·h.
Regarding `[2H]C([2H])([2H])n1ncc2cc(-c3c(-c4cn(C)nc4OC)[nH]c4ncc5c(c34)n(C3CCOCC3)c(=O)n5C)ccc21` [Comparative Example B, reference compound], the solubility at 24 h in the series “FaSSIF Solubility Assay” (read-out: Solubility Fassif) was at most 50 µg/mL. The AUC in series [1] was above 1.5 µM·h; in series [2] (setting [4]) it was at most 0.5 µM·h.
For `COc1nn(C)cc1-c1[nH]c2ncc3c(c2c1-c1ccc2c(cnn2C)c1)n([C@H]1CC[C@@H](CC#N)CC1)c(=O)n3C` [E, reference compound], the solubility at 24 h in the series “FaSSIF Solubility Assay” (read-out: Solubility Fassif) is at most 50 µg/mL. For the same molecule, in series [3], the exposure (AUC) was above 1.5 µM·h.
`[2H]C([2H])([2H])n1c(=O)n([C@@H]2CC[C@@H](NC(=O)OC)C2)c2c3c(-c4ccc5c(cnn5C(C)C)c4)c(-c4ccc(CN(C)C)cc4)[nH]c3ncc21` [Example 26, Methyl ((1R,3R)-3-(7-(4-((dimethylamino)methyl)phenyl)-8-(1-isopropyl-1H-indazol-5-yl)-3-(methyl-d3)-2-oxo-3,6-dihydroimidazo[4,5-d]pyrrolo[2,3-b]pyridin-1(2H)-yl)cyclopentyl)carbamate]: the solubility at 24 h in the series “FaSSIF Solubility Assay” (read-out: Solubility Fassif) is above 500 µg/mL. In addition, the exposure (AUC) in series [1] was at most 0.5 µM·h; in series [2] (setting [4]), 0.5 to 1.5 µM·h.
Consider `COc1nn(C)cc1-c1[nH]c2ncc3c(c2c1-c1ccc2c(cnn2C)c1)n(C1CCOCC1)c(=O)n3C` [Comparative Example A, reference compound], for which the solubility at 24 h in the series “FaSSIF Solubility Assay” (read-out: FaSSIF solubility) was below 20 µg/mL; in the series “FaSSIF Solubility Assay” (read-out: Solubility Fassif) it was at most 50 µg/mL. The AUC in series [3] was above 1.5 µM·h; in series [2] (setting [4]) it was at most 0.5 µM·h.
